Laboratory results as given in patent US11274124B2, “Tubulysin analogues as anticancer agents and payloads for antibody-drug conjugates and methods of treatment therewith” (William Marsh Rice University, priority 2017, dated 2022).
Read-outs that look alike come from different tables or passages of the source.

Legend:
[1] = test system: MES SA DX (MES SA cell line with marked multi-drug resistance); test: In vitro cytotoxicity assay (CellTiter-Glo, 72 hours), MES SA DX
[2] = test system: MES SA (uterine sarcoma cell line); test: In vitro cytotoxicity assay (CellTiter-Glo, 72 hours), MES SA; format: cell-based
[3] = test system: HEK 293T (human embryonic kidney cancer cell line); test: In vitro cytotoxicity assay (CellTiter-Glo, 72 hours), HEK 293T; format: cell-based
[4] = Homo sapiens, MES-SA, 72 h, read-out: MES SA DX, IC50 Value in nM
[5] = Homo sapiens, MES-SA, 72 h, read-out: MES SA, IC50 Value in nM
[6] = Homo sapiens, HEK-293T, 72 h, read-out: HEK 293T, IC50 Value in nM
[7] = Homo sapiens, MES-SA, 72 h, read-out: MES SA DX, IC50
[8] = Homo sapiens, MES-SA, 72 h, read-out: MES SA, IC50
[9] = Homo sapiens, HEK-293T, 72 h, read-out: HEK 293T, IC50

SMILES | IC50 [1, 4] [nM] | IC50 [2, 5] [nM] | IC50 [3, 6] [nM] | cytotoxicities against the marked drug resistant cancer cell line MES SA DX (in words) [1] | IC50 [1, 7] [nM] | IC50 [2, 8] [nM] | IC50 [3, 9] [nM] | IC50 ([1]; read-out: MES SA DX, IC50 Value in nM, Table 2, 72 hours, CellTiter-Glo) [nM] | IC50 ([2]; Table 2, 72 hours, CellTiter-Glo, read-out: MES SA, IC50 Value in nM) [nM] | IC50 ([3]; Table 2, 72 hours, CellTiter-Glo, read-out: HEK 293T, IC50 Value in nM) [nM]
COC(=O)[C@@H](C)C[C@H](Cc1ccccc1)NC(=O)c1csc([C@@H](C[C@H](C(C)C)N(C)C(=O)[C@H](NC(=O)[C@H]2CCCCN2C)C(C(F)(F)F)C(F)(F)F)OC(C)=O)n1 [Tb85, Methyl(2S,4R)-4-[({2-[(1R,3R)-1-acetoxy-4-methyl-3-{methyl[(2R)-4,4,4-trifluoro-2-({[(2R)-1-meth-ylpiperidin-2-yl]carbonyl}amino)-3-(trifluoromethyl)butanoyl]amino}pentyl]-1,3-thiazol-4-yl}-carbonyl)amino]-2-methyl-5-phenylpentanoate] | > 1000 | 37.3 | 32.4 | – | – | – | – | – | – | –
COC(=O)[C@@H](C)C[C@H](Cc1ccccc1)NC(=O)c1csc([C@@H](C[C@H](C(C)C)N(C)C(=O)[C@H](NC(=O)[C@H]2CCCN2C)C(C(F)(F)F)C(F)(F)F)OC(C)=O)n1 [Tb86, Methyl (2S,4R)-4-[({2-[(1R,3R)-1-acetoxy-4-methyl-3-{methyl[(2R)-4,4,4-trifluoro-2-({[(2R)-1-meth-ylpyrrolidin-2-yl]carbonyl}amino)-3-(trifluoromethyl)butanoyl]amino}pentyl]-1,3-thiazol-4-yl}car-bonyl)amino]-2-methyl-5-phenylpentanoate] | > 1000 | > 1000 | > 1000 | – | – | – | – | – | – | –
CCN[C@@H](C[C@H](Cc1ccccc1)NC(=O)c1csc([C@@H](C[C@H](C(C)C)N(C)C(=O)[C@@H](NC(=O)[C@H]2CCCCN2C)C(C)C)OC(C)=O)n1)C(=O)OC [Tb118, Methyl (2S)-4-{[(2-{1-acetoxy-4-methyl-3-[methyl(3-methyl-2-{[(1-methylpiperidin-2-yl)carbonyl]-amino}butanoyl)amino]pentyl}-1,3-thiazol-4-yl)carbonyl]amino}-2-(ethylamino)-5-phenylpentanoate] | 5.6 | 0.14 | 0.015 | relatively potent (low nanomolar) | 5.6 | 0.14 | 0.015 | – | – | –
COC(=O)[C@@H](C)C[C@H](Cc1ccccc1)NC(=O)c1nc([C@@H](C[C@H](C(C)C)N(C)C(=O)[C@@H](NC(=O)[C@H]2CCCCN2)C(C)C)OC(C)=O)sc1C [Tb69, Methyl (2S,4R)-4-[({2-[(1R,3R)-1-acetoxy-4-methyl-3-{methyl[(2S)-3-methyl-2-{[(2R)-piperidin-2-ylcarbonyl]amino}butanoyl]amino}pentyl]-5-methyl-1,3-thiazol-4-yl}carbonyl)amino]-2-methyl-5-phenylpentanoate] | > 1000 | 30.8 | > 1000 | – | – | – | – | – | – | –
CCOC(=O)[C@@H](C)C[C@H](Cc1ccccc1)NC(=O)c1csc([C@@H](C[C@H](C(C)C)N(C)C(=O)[C@@H](NC(=O)[C@H]2C[C@H](O)CCN2C)C(C)C)OC(C)=O)n1 [Tb76, Ethyl (2S,4R)-4-[({2-[(1R,3R)-1-acetoxy-3-{[(2S)-2-({[(2R,4R)-4-hydroxy-1-methylpiperidin-2-yl]-carbonyl}amino)-3-methylbutanoyl](methyl)amino}-4-methylpentyl]-1,3-thiazol-4-yl}carbonyl)-amino]-2-methyl-5-phenylpentanoate] | > 2500 | 4.88 | 1.37 | – | – | – | – | – | – | –
COC(=O)[C@@H](C)C[C@H](Cc1ccccc1)NC(=O)c1nc([C@@H](C[C@H](C(C)C)N(C)C(=O)[C@@H](NC(=O)[C@H]2CC(=O)CCN2C)C(C)C)OC(C)=O)sc1C(C)C [Tb75, Methyl (2S,4R)-4-[({2-[(1R,3R)-1-acetoxy-4-methyl-3-{methyl[(2S)-3-methyl-2-({[(2R)-1-methyl-4-oxopiperidin-2-yl]carbonyl}amino)butanoyl]amino}pentyl]-5-isopropyl-1,3-thiazol-4-yl}carbonyl)-amino]-2-methyl-5-phenylpentanoate] | > 400 | ≥ 400 | 127 | – | – | – | – | – | – | –
COC(=O)[C@@H](C)C[C@H](Cc1ccccc1)NC(=O)c1csc(CC[C@H](C(C)C)N(C)C(=O)[C@@H](NC(=O)[C@H]2CCCCN2C)C(C)C)n1 [PTb-D48] | > 1000 | > 1000 | > 1000 | – | – | – | – | – | – | –
COC(=O)[C@@H](C)C[C@H](Cc1ccccc1)NC(=O)c1csc([C@@H](C[C@H](C(C)C)N(C)C(=O)[C@@H](NC(=O)[C@H]2CCCCN2C)C(C)C)OC(C)=O)n1 [Tb32, reference compound] | – | – | – | – | – | – | – | 1.29 | 0.012 | 0.002
COC(=O)[C@H](C[C@H](Cc1ccccc1)NC(=O)c1csc([C@@H](C[C@H](C(C)C)N(C)C(=O)[C@@H](NC(=O)[C@H]2CCCCN2C)C(C)C)OC(C)=O)n1)N(C)C [Tb117, Methyl (2S)-4-{[(2-{1-acetoxy-4-methyl-3-[methyl(3-methyl-2-{[(1-methylpiperidin-2-yl)carbonyl]-amino}butanoyl)amino]pentyl}-1,3-thiazol-4-yl)carbonyl]amino}-2-(dimethylamino)-5-phenylpentanoate] | 4.63 | 0.099 | 0.059 | – | 4.63 | 0.099 | 0.059 | – | – | –
CCOC(=O)[C@@H](C)CC(Cc1ccccc1)NC(=O)c1nc([C@@H](C[C@H](C(C)C)N(C)C(=O)[C@@H](NC(=O)[C@H]2CCCCN2C)C(C)C)OC(C)=O)sc1CCOCc1ccccc1 (stereo in doubt) [Tb110, Ethyl (2S,4S)-4-[({2-[(1R,3R)-1-acetoxy-4-methyl-3-{methyl[(2S)-3-methyl-2-{[(1-methylpiperidin-2-yl)carbonyl]amino}butanoyl]amino}pentyl]-5-[2-(benzyloxy)ethyl]-1,3-thiazol-4-yl}carbonyl)-amino]-2-methyl-5-phenylpentanoate] | > 400 | 3.09 | 1.87 | – | – | – | – | – | – | –
CC(=O)O[C@H](C[C@H](C(C)C)N(C)C(=O)[C@H](C)NC(=O)[C@H]1CCCN1C)c1nc(C(=O)N[C@@H](Cc2ccccc2)C[C@H](C)C(=O)O)cs1 [Tb92, (2S,4R)-4-[({2-[(1R,3R)-1-Acetoxy-4-methyl-3-{methyl[(2S)-2-({[(2R)-1-methylpyrrolidin-2-yl]car-bonyl}amino)propanoyl]amino}pentyl]-1,3-thiazol-4-yl}carbonyl)amino]-2-methyl-5-phenylpentanoic acid] | > 1000 | > 1000 | > 1000 | – | – | – | – | – | – | –
COC(=O)[C@@H](C)C[C@H](Cc1ccccc1)NC(=O)c1csc([C@@H](C[C@H](C(C)C)N(C)C(=O)[C@@H](NC(=O)[C@H]2CCCCN2C)C(C(F)(F)F)C(F)(F)F)OC(C)=O)n1 [Tb79, Methyl (2S,4R)-4-[({2-[(1R,3R)-1-acetoxy-4-methyl-3-{methyl[(2S)-4,4,4-trifluoro-2-({[(2R)-1-meth-ylpiperidin-2-yl]carbonyl}amino)-3-(trifluoromethyl)butanoyl]amino}pentyl]-1,3-thiazol-4-yl}carbonyl)amino]-2-methyl-5-phenylpentanoate] | > 1000 | 39.1 | 36.4 | – | – | – | – | – | – | –
COC(=O)[C@@H](C)C[C@H](Cc1ccccc1)NC(=O)c1nc([C@@H](C[C@H](C(C)C)N(C)C(=O)[C@@H](NC(=O)[C@H]2C[C@H](O)CCN2C)C(C)C)OC(C)=O)sc1C(C)C [Tb74, Methyl (2S,4R)-4-[({2-[(1R,3R)-1-acetoxy-3-{[(2S)-2-({[(2R,4R)-4-hydroxy-1-methylpiperidin-2-yl]-carbonyl}amino)-3-methylbutanoyl](methyl)amino}-4-methylpentyl]-5-isopropyl-1,3-thiazol-4-yl}-carbonyl)amino]-2-methyl-5-phenylpentanoate] | > 400 | 5.32 | 2.46 | – | – | – | – | – | – | –
COC(=O)[C@@H](CC(Cc1ccccc1)NC(=O)c1csc([C@@H](CC(C(C)C)N(C)C(=O)[C@@H](NC(=O)[C@H]2CCCCN2C)C(C)C)OC(C)=O)n1)NC(=O)OCc1ccccc1 (stereo in doubt) [Tb115, Methyl(2R,4R)-4-[({2-[(1R,3S)-1-acetoxy-4-methyl-3-{methyl[(2S)-3-methyl-2-{[(1-methylpiperidin-2-yl)carbonyl]amino}butanoyl]amino}pentyl]-1,3-thiazol-4-yl}carbonyl)amino]-2-{[(benzyloxy)carbonyl]amino}-5-phenylpentanoate] | 13.8 | 0.02 | 0.01 | relatively potent (low nanomolar) | 13.8 | 0.02 | 0.01 | – | – | –
COC(=O)[C@@H](C)C[C@H](Cc1ccccc1)NC(=O)c1csc([C@@H](C[C@H](C(C)C)N(C)C(=O)[C@H](C)NC(=O)[C@H]2CCCCN2C)OC(C)=O)n1 [Tb89, Methyl (2S,4R)-4-[({2-[(1R,3R)-1-acetoxy-4-methyl-3-{methyl[(2S)-2-({[(2R)-1-methylpiperidin-2-yl]carbonyl}amino)propanoyl]amino}pentyl]-1,3-thiazol-4-yl}carbonyl)amino]-2-methyl-5-phenylpentanoate] | > 1000 | > 1000 | > 1000 | – | – | – | – | – | – | –
COC(=O)[C@@H](C)C[C@H](Cc1ccccc1)NC(=O)c1csc([C@H](O)C[C@H](C(C)C)N(C)C(=O)[C@@H](NC(=O)[C@H]2CCCCN2C)C(C(F)(F)F)C(F)(F)F)n1 [Tb80, Methyl (2S,4R)-4-[({2-[(1R,3R)-1-hydroxy-4-methyl-3-{methyl[(2S)-4,4,4-trifluoro-2-({[(2R)-1-methylpiperidin-2-yl]carbonyl}amino)-3-(trifluoromethyl)butanoyl]amino}pentyl]-1,3-thiazol-4-yl}-carbonyl)amino]-2-methyl-5-phenylpentanoate] | > 1000 | > 1000 | > 1000 | – | – | – | – | – | – | –
